From patent publication US20240139165A1, “METHODS AND COMPOSITIONS FOR TREATMENT OF INFLAMMATORY BOWEL DISEASE” (SHENZHEN HIGHTIDE BIOPHARMACEUTICAL, LTD., priority 2017, published 2024)

Assay: Single-dose pharmacokinetic study of berberine and fish oil in rats
Format: in vivo, male Sprague-Dawley (SD) rats
Conditions: SD rats, single oral, BBR 100 mg/kg
Source text: In the single-dose pharmacokinetic study in rats, after 7-day acclimation, healthy male Sprague-Dawley (SD) rats with the body weight of 210-250 g were randomized into six groups as follows (3 rats per group). Fish oil used in this study containing 47.8% (w/w) EPA-ethyl ester and 39.0% (w/w) DHA-ethyl ester. [table] The rats in each group were orally treated with the suspensions of the corresponding testing articles indicated above in 0.5% gum tragacanth respectively. Blood samples of the test animals were collected pre-dose and at the time points of 15 min, 30 min, 1 h, 1.5 h, 2 h, 4 h, 8 h, and 24 h post-dose. The collected blood samples (approximately 400 μL) were placed into tubes containing heparin sodium and centrifuged at 8000 rpm for 6 minutes at 4° C. to separate plasma. The obtained plasma from each sample was stored at −80° C. until being analyzed. Plasma concentrations of BBR and EPA were determined, and PK parameters were calculated.

Cmax of BBR: 4.23 ± 5.46 ng/mL
Ratio of AUC0-t of BBR compared to BBR group: 1.00
Ratio of Cmax of BBR compared to BBR group: 1.00
AUC(0-t) (male, Sprague-Dawley, rat, plasma, read-out: AUC0-t of BBR): 45.8 ± 60.1 ng·h/mL
SMILES: COc1ccc2cc3[n+](cc2c1OC)CCc1cc2c(cc1-3)OCO2 [BBR, 5,6-dihydro-9,10-dimethoxybenzo[g]-1,3-benzodioxolo[5,6-a]quinolizinium]
